Counter-ions that a name gives are not always drawn.
Assays:
[1] = Solid stability test of crystal (storage, content by HPLC, appearance); format: physicochemical; set-up: key to Change of Appearance: when there was no change in appearance, an evaluation was (−); when there was a little change observed, it was (±); conditions: for Survival Rate: vs standard stored at −40° C.; for Change in the appearance / Solid stability, decrease in content: all storage conditions, two or four weeks
Description: About 10 mg of crystal was correctly weighed in the 2-mL glass container with a stopper made of polyethylene.
After closing the glass container, it was rolled with parafilm, and stored for two or four weeks at 40° C. or 60° C. The sample stored at 40° C. is called 40° C. with airtight stopper, and the sample saved at 60 C. is called 60° C. with airtight stopper.
Also samples were reserved with the glass container opened at 40° C., relative humidity 89%, or 60° C., for two weeks or four weeks. The sample stored at 40° C. and relative humidity 89% is called 40° C. R.H.89%, and the sample stored at 60° C. is called 60° C. Opened.
Using samples with airtight stopper stored at −40° C. as a standard, the content was measured with the absolute calibration method by the HPLC method under the following conditions:
In addition, when there was no change in appearance, an evaluation was (−), and when there was a little change observed, it was (±).
Column: CAPCELL PAK C18 AQ (3 micrometer 3.0×150 mm)
Column temperature: 50° C.
UV detection wavelength: 231 nm
[A] A mixed solution containing ammonium formate (10 mmol/L) and magnesium chloride (10 mmol/L)

[2] = Confirmatory test for hygroscopicity of crystal (automated water vapor sorption, DVS); format: physicochemical
Description: After completion of the drying, relative humidity was continuously changed at intervals of 5% in a range from 0% to 95% and the amount of water vapor adsorption and desorption of the sample was measured with automated water vapor sorption apparatus: DVS Advantage (Surface Measurement Systems).

[3] = 40° C. R.H. 89%, opened, 2 weeks
[4] = 40° C. R.H. 89%, opened, 4 weeks
[5] = 40° C. airtight stopper, 4 weeks
[6] = 60° C. airtight stopper, 2 weeks
[7] = 60° C. airtight stopper, 4 weeks

SMILES	Change of Appearance [1, 3]	Survival Rate [1, 3]	Change of Appearance [1, 4]	Survival Rate [1, 4]	Change of Appearance [1, 5]	Survival Rate [1, 5]	Change of Appearance ([1]; 60° C. Opened, 2 weeks)	Survival Rate ([1]; 60° C. Opened, 2 weeks)	Change of Appearance ([1]; 60° C. Opened, 4 weeks)	Survival Rate ([1]; 60° C. Opened, 4 weeks)	Change of Appearance [1, 6]	Survival Rate [1, 6]	Change of Appearance [1, 7]	Survival Rate [1, 7]	Change in the appearance [1]	Solid stability, decrease in content [1]	Hygroscopicity (in words) ([2]; 0% to 95% relative humidity at 25° C.)	Amount of the maximum moisture absorption ([2]; range of 0% to 95% of relative humidity at 25° C.)
CC(C)(NC(=O)C1=C(O)[C@@H]2Oc3c(O)ccc4c3[C@@]23CCN(CC2CC2)[C@H](C4)[C@]3(O)C1)c1nc(-c2ccccc2)no1 [p-toluenesulfonic acid salt (non-solvate)]	−	99.3%	−	100.5%	−	98.0%	−	100.3%	−	98.8%	−	99.9%	−	99.6%	no change in the appearance	stable	hygroscopicity was little observed	less than 1.2%
CC(C)(NC(=O)C1=C(O)[C@@H]2Oc3c(O)ccc4c3[C@@]23CCN(CC2CC2)[C@H](C4)[C@]3(O)C1)c1nc(-c2ccccc2)no1 [p-toluenesulfonic acid salt hydrate (form I)]	−	101.2%	±	98.4%			−	100.5%	±	98.5%	−	100.8%	±	99.2%	no change in the appearance	stable		
CC(C)(NC(=O)C1=C(O)[C@@H]2Oc3c(O)ccc4c3[C@@]23CCN(CC2CC2)[C@H](C4)[C@]3(O)C1)c1nc(-c2ccccc2)no1 [p-toluenesulfonic acid salt hydrate (form II)]	−	100.9%	±	100.1%			−	100.7%	±	100.4%	−	102.0%	±	100.6%	no change in the appearance	stable		
